Results from patent publication US8802664B2 (Bioproject, priority 2010, dated 2014).

Target: T1, human H4 receptor (Homo sapiens, UniProt Q9H3N8)
T1 construct: expressed in transfected cells
Assay: [3H]Histamine binding on membranes of CHO cells stably expressing human H4 receptor
Conditions: not given
Description: CHO cells stably expressing human H4 receptor were grown until sub-confluence and centrifuged at 300 g 15 minutes at 4° C. Pellets were resuspended in buffer I Tris-HCl 50 mM, MgCl2 10 mM, NaCl 140 mM, pH=7.4 supplemented by a 1/50 dilution of a mix of protease inhibitors. The obtained suspension is stirred gently and submitted to a […] exerted through a syringe. The cell lysate is then centrifuged at 300 g 15 minutes at 4° C. in order to eliminate nucleus and cell scraps. The obtained supernatant was then centrifuged at 48000 g for 30 minutes at 4° C. The final pellet is resuspended in buffer I with a potter homogenizer. Aliquots were frozen in liquid nitrogen and stored until use at −80° C. Protein content is measured by the Bradford method.
Defreezed membranes were diluted at a final concentration of 20 μg/180 μL/well in a binding buffer containing 50 mM Tris/HCl, 0.5 mM EDTA, pH=7.4 and distributed in 96 well polystyrene microplate. [^3H] […] Non specific binding was estimated in the presence of 10 μM BP1.2404 (JNJ 7777120). The reaction was terminated by filtration through GF/B filters pre-soaked 2 hours at 4° C. in […]. Filters were rinsed 3 times with 250 μl of ice cold incubation binding buffer.
The filter-bound radioactivity was measured in a liquid scintillation counter Microbeta TRILUX® with 50 μl of scintillation fluid.
The hH4 binding investigated by use of [^3H]

Row | Structure (SMILES) | Ki or IC50 activity class [nM]
1 | CN1CCC(OC(c2nc3ccccc3s2)c2ccccc2Cl)CC1 (centres unmarked) [Example 281, 2-[(2-Chlorophenyl)(1-methylpiperidin-4-yloxy)methyl]benzothiazole] | < 1000
2 | CN1CCC(OC(c2cccc(OC(F)(F)F)c2)c2nc3ccccc3s2)CC1 (centres unmarked) [Example 23, 2-[(1-methylpiperidin-4-yloxy)(3-trifluoromethoxyphenyl)methyl]benzothiazole] | < 30
3 | CN1CCC(OC(c2cccc(N3CCC(CO)C3)c2)c2nc3ccccc3s2)CC1 (centres unmarked) [Example 404, (1-{3-[benzothiazol-2-yl(1-methylpiperidin-4-yloxy)methyl]phenyl}pyrrolidin-3-yl)methanol] | < 300
4 | c1csc(C(OC2CCNCC2)c2nc3ccccc3[nH]2)c1 (centres unmarked) [Example 544] | < 1000
5 | CN1CCC(NC(c2cccc(Br)c2)c2nc3ccccc3s2)CC1 (centres unmarked) [Example 82, [benzothiazol-2-yl(3-bromophenyl)methyl](1-methylpiperidin-4-yl)amine] | < 300
6 | CC(=O)COCc1cccc(C(OC2CCN(C)CC2)c2nc3ccccc3s2)c1 (centres unmarked) [Example 270, 1-{3-[benzothiazol-2-yl(1-methylpiperidin-4-yloxy)methyl]benzyloxy}propan-2-one] | < 1000
7 | CN1CCC(OC(c2cccc(C=CS(=O)(=O)c3ccccc3)c2)c2nc3ccccc3s2)CC1 (centres unmarked) [Example 209, 2-[[3-(2-benzenesulfonylvinyl)phenyl](1-methylpiperidin-4-yloxy)methyl]benzothiazole] | < 300
8 | COc1cc(F)cc(C(OC2CCN(C)CC2)c2nc3ccccc3s2)c1 (centres unmarked) [Example 40, 2-[(3-fluoro-5-methoxyphenyl)(1-methylpiperidin-4-yloxy)methyl]benzothiazole] | < 30
9 | COC(=O)c1cccc(C(OC2CCN(C)CC2)c2nc3ccccc3s2)c1 (centres unmarked) [Example 199, 3-[benzothiazol-2-yl(1-methylpiperidin-4-yloxy)methyl]benzoic acid methyl ester] | < 300
10 | CN1CCC(OC(c2cccc(C#CCCCCN)c2)c2nc3cc(F)ccc3[nH]2)CC1 (centres unmarked) [Example 439, 6-{3-[(5-fluoro-1H-benzimidazol-2-yl)(1-methylpiperidin-4-yloxy)methyl]phenyl}hex-5-ynylamine] | < 30
11 | CN1CCC(OC(c2cccc(C#CCCCCN)c2)c2nc3ccccc3n2C)CC1 (centres unmarked) [Example 480, 6-{3-[(1-methyl-1H-benzimidazol-2-yl)(1-methylpiperidin-4-yloxy)methyl]phenyl}hex-5-ynylamine] | < 300
12 | CN1CCC(OC(c2cccc(CCCCCN)c2)c2nc3ccccc3s2)CC1 (centres unmarked) [Example 289, 5-{3-[benzothiazol-2-yl(1-methylpiperidin-4-yloxy)methyl]phenyl}pentylamine] | < 30
13 | CN1CC(COC(c2nc3ccccc3[nH]2)c2cc(OC(F)(F)F)ccc2F)C1 (centres unmarked) [Example 516] | < 300
14 | CN1CCC(OC(c2cccc(CCCCO)c2)c2nc3ccccc3s2)CC1 (centres unmarked) [Example 238, 4-{3-[benzothiazol-2-yl(1-methylpiperidin-4-yloxy)methyl]phenyl}butan-1-ol] | < 1000
15 | CN1CCC(OC(c2cccc(OCCCN3CCN(C(=O)OC(C)(C)C)CC3)c2)c2nc3ccccc3s2)CC1 (centres unmarked) [Example 351, 4-(3-{3-[benzothiazol-2-yl(1-methylpiperidin-4-yloxy)methyl]phenoxy}propyl)piperazine-1-carboxylic acid tert-butyl ester] | < 1000
16 | CN1CCC(OC(c2ccsc2)c2nc3ccccc3s2)CC1 (centres unmarked) [Example 16, 2-[(1-methylpiperidin-4-yloxy)thiophen-3-ylmethyl]benzothiazole] | < 30
17 | CCCOc1cccc(C(NC2CCN(C)CC2)c2nc3ccccc3s2)c1 (single isomer, unassigned) [Example 56, [benzothiazol-2-yl(3-propoxyphenyl)methyl](1-methylpiperidin-4-yl)amine] | < 300
18 | COCCn1c(C(OC2CCN(C)CC2)c2cccc(C#CCCCCN)c2)nc2ccccc21 (centres unmarked) [Example 501] | < 300

Next, values leading:

Row | Ki or IC50 activity class [nM] | Structure (SMILES)
19 | < 1000 | CN1CCC(OC(c2cccc(OCCNCC(=O)OC(C)(C)C)c2)c2nc3ccccc3[nH]2)CC1 (centres unmarked) [Example 361, (2-{3-[(1H-benzimidazol-2-yl)(1-methylpiperidin-4-yloxy)methyl]phenoxy}ethylamino)acetic acid tert-butyl ester]
20 | < 1000 | CN1CCC(OC(c2cccc(N3CCC(F)(F)C3)c2)c2nc3ccccc3[nH]2)CC1 (centres unmarked) [Example 491]
21 | < 300 | CN1CCC(OC(c2cccc(-c3cccnc3)c2)c2nc3ccccc3[nH]2)CC1 (centres unmarked) [Example 89, 2-[(1-methylpiperidin-4-yloxy)(3-pyridin-3-ylphenyl)methyl]-1H-benzimidazole]
22 | < 30 | CN1CCC(OC(c2cccc(OCc3cc(F)ccc3F)c2)c2nc3ccccc3s2)CC1 (centres unmarked) [Example 156, 2-[[3-(2,5-difluorobenzyloxy)phenyl](1-methylpiperidin-4-yloxy)methyl]benzothiazole]
23 | < 300 | COc1ccccc1-c1cccc(C(OC2CCN(C)CC2)c2nc3ccccc3s2)c1 (centres unmarked) [Example 96, 2-[(2′-methoxybiphenyl-3-yl)(1-methylpiperidin-4-yloxy)methyl]benzothiazole]
24 | < 300 | CN1CCC(OC(c2cccc(CCCCCN)c2)c2nc3ccccc3[nH]2)CC1 (centres unmarked) [Example 312, 5-{3-[(1H-benzimidazol-2-yl)(1-methylpiperidin-4-yloxy)methyl]phenyl}pentylamine]
25 | < 300 | CN1CCC(OC(c2cccc(Oc3ccccc3)c2)c2nc3ccccc3s2)CC1 (centres unmarked) [Example 28, 2-[(1-methylpiperidin-4-yloxy)(3-phenoxy-phenyl)methyl]benzothiazole]
26 | < 30 | CN1CCC(OC(c2cccc(C#CCCCN)c2)c2nc3ccccc3[nH]2)CC1 (centres unmarked) [Example 294, 5-{3-[(1H-benzimidazol-2-yl)(1-methylpiperidin-4-yloxy)methyl]phenyl}pent-4-ynylamine]
27 | < 30 | CN1CCC(OC(c2cccc(CCCNC(=N)N)c2)c2nc3ccccc3[nH]2)CC1 (centres unmarked) [Example 320, N-(3-{3-[(1H-benzimidazol-2-yl)(1-methylpiperidin-4-yloxy)methyl]phenyl}propyl)guanidine]
28 | < 300 | CN1CCC(OC(c2cccc(-c3ccc(Cl)c(Cl)c3)c2)c2nc3ccccc3[nH]2)CC1 (centres unmarked) [Example 122, 2-[(3′,4′-dichlorobiphenyl-3-yl)(1-methylpiperidin-4-yloxy)methyl]-1H-benzimidazole]
29 | < 300 | CC(=O)c1ccc(-c2cccc(C(OC3CCN(C)CC3)c3nc4ccccc4[nH]3)c2)cc1 (centres unmarked) [Example 108, 1-{3′-[(1H-benzimidazol-2-yl)(1-methylpiperidin-4-yloxy)methyl]biphenyl-4-yl}ethanone]
30 | < 300 | CN1CCC(OC(c2cccc(C#CC3CN(C(=N)N)C3)c2)c2nc3ccccc3[nH]2)CC1 (centres unmarked) [Example 426, 3-{3-[(1H-benzimidazol-2-yl)(1-methylpiperidin-4-yloxy)methyl]phenylethynyl}azetidine-1-carboxamidine]
31 | < 30 | Cc1ccc(C(OC2CCN(C)CC2)c2nc3ccccc3[nH]2)c(F)c1 (single isomer, unassigned) [Example 533, 2-[(2-fluoro-4-methylphenyl)(1-methylpiperidin-4-yloxy)methyl]-1H-benzimidazole]
32 | < 1000 | CN1CCC(OC(c2ccc([N+](=O)[O-])cc2)c2nc3ccccc3[nH]2)CC1 (centres unmarked) [Example 447, 2-[(1-methylpiperidin-4-yloxy)(4-nitrophenyl)methyl]-1H-benzimidazole]
33 | < 30 | CN1CCC(OC(c2ccc3cc[nH]c3c2)c2nc3ccccc3[nH]2)CC1 (centres unmarked) [Example 550, 2-[(1H-indol-6-yl)(1-methylpiperidin-4-yloxy)methyl]-1H-benzimidazole]
34 | < 300 | CN1CCC(OC(c2cccc(N3CCC(O)C3)c2)c2nc3ccccc3[nH]2)CC1 (centres unmarked) [Example 452]
35 | < 300 | CN1CCC(OC(c2cccc(SCCCCCCO)c2)c2nc3ccccc3[nH]2)CC1 (centres unmarked) [Example 295, 6-{3-[(1H-benzimidazol-2-yl)(1-methylpiperidin-4-yloxy)methyl]phenylsulfanyl}hexan-1-ol]
36 | < 300 | CN1CCC(OC(c2cccc(-c3cccc(N)c3)c2)c2nc3ccccc3s2)CC1 (centres unmarked) [Example 79, 3′-[benzothiazol-2-yl(1-methylpiperidin-4-yloxy)methyl]biphenyl-3-ylamine]
37 | < 1000 | CN1CCC(OC(c2cccc(SCCNC3=NCCS3)c2)c2nc3ccccc3[nH]2)CC1 (centres unmarked) [Example 299, (2-{3-[(1H-benzimidazol-2-yl)(1-methylpiperidin-4-yloxy)methyl]phenyl-sulfanyl}ethyl)(4,5-dihydrothiazol-2-yl)amine]

Same assay, conditions: human H4 receptor; evaluated in the GTPγ[35S] assay or in the [3H]histamine binding assay (not stated which per compound); Ki or IC50 class

Row | Structure (SMILES) | Ki or IC50 activity class [nM]
38 | CN1CCC(OC(c2cccc(N3CCC(O)C3)c2)c2nc3ccccc3s2)CC1 (centres unmarked) [Example 407, 1-{3-[benzothiazol-2-yl(1-methylpiperidin-4-yloxy)methyl]phenyl}pyrrolidin-3-ol] | < 30
